Data taken from US20220169639A1 (priority 2018, published 2022).

tested on: HBeAg (surrogate marker for cccDNA) in HepDES19 cells; assay: Engineered HepDES19 primary screen assay (HBeAg ELISA); format: cell-based, HBV; details: Hepatitis B virus, 120 h, HBeAg in culture supernatant, 5 days incubation, read-out: IC50 (HepDES19 primary screen assay, inhibition of extracellular HBeAg level)
In short: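 HepDES19 cells pre-induced by Tet withdrawal for 8 days, frozen, then seeded and dosed after 24 h with half-log compound dilutions (1% DMSO final). After 5 days at 37 °C, HBeAg measured by ELISA and viability by CCK-8; IC50 from 4-parameter logistic fit.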

Row | Structure (SMILES) | IC50 [nM]
1 | Cc1ccc(-c2cc(=O)c3cccc(Cl)c3o2)c(OCCN2CC(C(=O)O)C2)c1 [Example 054, 1-[2-[2-(8-chloro-4-oxo-chromen-2-yl)-5-methyl-phenoxy]ethyl]azetidine-3-carboxylic acid] | 240
2 | O=c1cc(-c2ccc(C(F)(F)F)cc2OCCCN([C@H]2C[C@@H](C(=O)O)C2)S(=O)(=O)c2ccccc2)oc2c(Cl)cccc12 [Example 141] | 350
3 | C[C@@H]1NC(=O)N(CCOc2cc(C(F)(F)F)ccc2-c2cc(=O)c3cccc(Cl)c3o2)C1=O [Example 155] | 5110
4 | Cc1ccc(-c2cc(=O)c3cccc(Cl)c3o2)c(OCCNC(=O)C(=O)O)c1 [Example 121] | 4250
5 | O=c1cc(-c2ccc(C(F)(F)F)cc2OCCNS(=O)(=O)C2CC2)oc2c(Cl)cccc12 [Example 096] | 130
6 | O=C(O)[C@H]1CCN(CC(O)COc2cc(C(F)(F)F)ccc2-c2cc(=O)c3cccc(Cl)c3o2)C1 (stereo partly drawn) [Example 163, (3S)-1-[3-[2-(8-chloro-4-oxo-chromen-2-yl)-5-(trifluoromethyl)phenoxy]-2-hydroxy-propyl]pyrrolidine-3-carboxylic acid] | 2760
7 | NC(=O)C1CSCCN1CCOc1cc(Br)ccc1-c1cc(=O)c2cccc(Cl)c2o1 (stereo not drawn) [Example 085, 4-[2-[5-bromo-2-(8-chloro-4-oxo-chromen-2-yl)phenoxy]ethyl]thiomorpholine-3-carboxamide] | 1080
8 | CCOC(=O)C(=O)N(CCCOc1cc(C(F)(F)F)ccc1-c1cc(=O)c2cccc(Cl)c2o1)S(=O)(=O)CC [Example 138, ethyl 2-[3-[2-(8-chloro-4-oxo-chromen-2-yl)-5-(trifluoromethyl)phenoxy]propyl-ethylsulfonyl-amino]-2-oxo-acetate] | 4560
9 | O=c1cc(-c2ccccc2O)oc2cc(O)ccc12 [Example F-1, 7-hydroxy-2-(2-hydroxyphenyl)chromen-4-one, reference compound] | > 50000
10 | COc1cc(OCCNC(=O)C(=O)O)c(-c2cc(=O)c3cccc(Cl)c3o2)cc1OC [Example 114] | 870
11 | O=C(O)C12CC(NCCOc3cc(Br)ccc3-c3cc(=O)c4cccc(Cl)c4o3)(C1)C2 [Example 026, 3-[2-[5-bromo-2-(8-chloro-4-oxo-chromen-2-yl)phenoxy]ethylamino]bicyclo[1.1.1]pentane-1-carboxylic acid] | 460
12 | COc1cc(OCCNC(=O)C(=O)O)c(-c2cc(=O)c3cccc(Cl)c3o2)cc1Br [Example 122] | 7720
13 | Cc1ccc(S(=O)(=O)NC(=O)NCCOc2cc(C(F)(F)F)ccc2-c2cc(=O)c3cccc(Cl)c3o2)cc1 [Example 158, 1-[2-[2-(8-chloro-4-oxo-chromen-2-yl)-5-(trifluoromethyl)phenoxy]ethyl]-3-(p-tolylsulfonyl)urea] | 8350
14 | O=C(O)C(=O)N1CC(Oc2cc(C(F)(F)F)ccc2-c2cc(=O)c3cccc(Cl)c3o2)C1 [Example 127] | 80
15 | CCOC(=O)C(=O)NCCOc1cc(C)ccc1-c1cc(=O)c2cc(OC)cc(Cl)c2o1 [Example 103] | 3660
16 | O=c1cc(-c2ccc(Br)cc2OCCN[C@H]2CC[C@@H](C(=O)O)CC2)oc2c(Cl)cccc12 [Example 055, cis-4-[2-[5-bromo-2-(8-chloro-4-oxo-chromen-2-yl)phenoxy]ethylamino]cyclohexanecarboxylic acid] | 980
17 | Cc1ccc(-c2cc(=O)c3cccc(Cl)c3o2)c(OCCNS(N)(=O)=O)c1 [Example 161, 8-chloro-2-[4-methyl-2-[2-(sulfamoylamino)ethoxy]phenyl]-4-oxo-chromene] | 4740
18 | CCOC(=O)C(=O)NCCOc1cc(OC)ccc1-c1cc(=O)c2cccc(Cl)c2o1 [Example 104] | 9650
